Results published in patent publication US10730885B1, “Coumarin derivatives” (KING SAUD UNIVERSITY, priority 2019, dated 2020).
Values after ≈ are worked out from the molar mass of the structure shown.

Columns and labels:
[1] = DPPH microplate radical scavenging antioxidant assay; type: biochemical; details: DPPH, 30 min, mean ± SD (n = 3)
In short: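 Compounds, starting at 200 μg/mL in a dilution series, incubated with 0.2 mM methanolic DPPH for 30 min in the dark at 25° C. Absorbance at 515 nm converted to percent antioxidant activity; IC50 from concentration series, triplicate, mean±SD (n=3).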

trypsin = assay: Proteinase inhibitory activity (trypsin/casein); type: biochemical; details: for % Inhibition of proteinase activity: 250 μg/ml, mean ± SD (n = 3)
In short: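 Trypsin (0.06 mg) in 20 mM Tris-HCl pH 7.4 was preincubated 5 min with test sample (250 μg/ml solution), then 0.8% casein was added for 20 min. The reaction was stopped with perchloric acid, and supernatant absorbance was read at 280 nm after centrifugation. Percent inhibition relative to the uninhibited control was determined in triplicate.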

tested microorganisms = assay: MIC by two fold serial dilution, summary over the tested microorganisms; type: cell-based
Source text: (§1) The newly synthesized compounds were individually tested for their in vitro antimicrobial activity against the standard bacteria strains of American Type Culture Collection (ATCC), namely, Staphylococcus aureus ATCC 29213, Bacillus subtilis ATCC 6633, Bacillus megaterium ATCC 9885 (Gram-positive), Escherichia coli ATCC 2592 and Pseudomonas aeruginosa ATCC 27953 (Gram-negative). In addition, they were microbiologically tested against the locally isolated Saccharomyces cerevisiae (yeast) and the standard strain of Agricultural Research Service Culture Collection (NRRL) of the yeast like pathogenic fungus Candida albicans NRRL Y-477. The primary screening was carried out using the agar well diffusion method using nutrient agar (NA) medium and Sabourand dextrose agar (SDA) medium for pathological tested bacteria and yeast, respectively.
(§2) The bacteriostatic activity of the active compounds (having IZ>16 mm) was then evaluated using the two fold serial dilution technique. Two-fold serial dilutions of the tested compound solutions were prepared using the proper nutrient broth. The final concentration of the solutions were 1000, 500, 250 and 125 μg/ml. The tubes were then inoculated with the test organisms, grown in their suitable broth at 37° C. for 24 hours for tested microorganisms. (1×10^8 CFU/ml for bacteria and 1×10^6 CFU/ml of yeast), each 5 ml received 0.1 ml of the above inoculum and incubated at 37° C. for 24 h. The lowest concentration showing no growth was taken as the minimum inhibitory concentration (MIC).

[2] = system: formaldehyde-induced paw oedema; assay: Formaldehyde-induced rat paw oedema; type: in vivo; details: 2.5 mg/kg orally
Procedure: Testing was performed to determine formaldehyde-induced rat paw oedema (edema). For the formaldehyde-induced rat paw oedema (edema) test, female Wister albino rats (150-175 g) were used for determination of the anti-inflammatory activities. The rats were obtained from the animal house colony of the National Organization for Drug Control and Research (NODCAR), Egypt. The animals were kept in standard plastic cages in an air conditioned room at 22±3° C., 55±5% humidity and supplied with standard laboratory diet and water ad libitum. All animal experimental procedures were carried out according to the Ethics Committee of the National Research Centre, Cairo, Egypt and followed the guidelines of the National Institutes of Health, Guide for Care and Use of Laboratory Animals (1985).
The percentage protection against inflammation was calculated by using following formula:
[formula] where Vc is the mean percentage increase in paw volume in the control and Vd is the mean percentage increase in paw volume after injection of the test compound. Values were expressed as mean±standard error (S.E.). Comparisons between mean values were carried out using two-way analysis of variance (ANOVA), followed by Tukey Kramer multiple comparisons test for all acute toxicity study tests. […] was considered significant. Graph pad prism software (version 6) was used to carry out all statistical tests.

[3] = system: Pseudomonas aeruginosa ATCC 27953; assay: MIC by two fold serial dilution technique; type: cell-based; details: ATCC27953, P. aeruginosa, read-out: Minimal Inhibitory Concentration (MIC) PA
Source text: as §1, §2

[4] = system: Bacillus megaterium ATCC 9885; assay: MIC by two fold serial dilution technique; type: cell-based; details: Priestia megaterium, ATCC9885; B. megaterium; read-out: Minimal Inhibitory Concentration (MIC) BM
Source text: as §1, §2

[5] = system: Saccharomyces cerevisiae (local isolate); assay: MIC by two fold serial dilution technique; type: cell-based; details: read-out: Minimal Inhibitory Concentration (MIC) SC
Source text: as §1, §2

[6] = system: Candida albicans NRRL Y-477; assay: MIC by two fold serial dilution technique; type: cell-based; details: NRRLY477, C. albicans, read-out: Minimal Inhibitory Concentration (MIC) CA
Source text: as §1, §2

[7] = system: Escherichia coli ATCC 2592; assay: MIC by two fold serial dilution technique; type: cell-based; details: ATCC2592, E. coli, read-out: Minimal Inhibitory Concentration (MIC) EC
Source text: as §1, §2

[8] = system: Bacillus subtilis ATCC 6633; assay: MIC by two fold serial dilution technique; type: cell-based; details: ATCC6633, B. subtilis, read-out: Minimal Inhibitory Concentration (MIC) BS
Source text: as §1, §2

[9] = system: Staphylococcus aureus ATCC 29213; assay: MIC by two fold serial dilution technique; type: cell-based; details: ATCC29213, S. aureus, read-out: Minimal Inhibitory Concentration (MIC) SA
Source text: as §1, §2

[10] = system: Escherichia coli ATCC 2592; assay: Agar well diffusion, primary antimicrobial screening; type: cell-based; details: Escherichia coli, ATCC2592; E. coli ATCC 2592; 100 μL of 10 mg/ml in DMSO, 24 h; read-out: Inhibition Diameter Zone EC
In short: (§3)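 Seeded agar (bacteria 1×10^8 CFU/mL on nutrient agar; yeasts 1×10^6 CFU/ml on Sabouraud dextrose agar), 10 mm wells loaded with compound at 10 mg/ml in DMSO. Incubated 24 h at 37° C. Inhibition zone diameter (mm), mean of triplicate; DMSO negative control.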

[11] = system: Pseudomonas aeruginosa ATCC 27953; assay: as above; type: cell-based; details: Pseudomonas aeruginosa, ATCC27953; P. aeruginosa ATCC 27953; 100 μL of 10 mg/ml in DMSO, 24 h; read-out: Inhibition Diameter Zone PA
In short: as §3

[12] = system: Bacillus subtilis ATCC 6633; assay: as above; type: cell-based; details: Bacillus subtilis, ATCC6633; B. subtilis ATCC 6633; 100 μL of 10 mg/ml in DMSO, 24 h; read-out: Inhibition Diameter Zone BS
In short: as §3

[13] = system: Bacillus megaterium ATCC 9885; assay: as above; type: cell-based; details: Priestia megaterium, ATCC9885; B. megaterium ATCC 9885; 100 μL of 10 mg/ml in DMSO, 24 h; read-out: Inhibition Diameter Zone BM
In short: as §3

| Structure (SMILES) | melting point [°C] | IC50 [1] | in vitro anti-proteinase activity compared with aspirin (trypsin) | % Inhibition of proteinase activity (trypsin) [%] | MIC (tested microorganisms; against gram-positive bacteria) [µg/mL] | in vivo anti-inflammatory activity [2] | MIC (tested microorganisms; against most of the tested microorganisms) [µg/mL] | MIC [3] [µg/mL] | MIC [4] [µg/mL] | MIC [5] [µg/mL] | MIC [6] [µg/mL] | MIC [7] [µg/mL] | MIC [8] [µg/mL] | MIC [9] [µg/mL] | zone of inhibition at 10000 µg/mL [10] [mm] | zone of inhibition at 10000 µg/mL [11] [mm] | zone of inhibition at 10000 µg/mL [12] [mm] | zone of inhibition at 10000 µg/mL [13] [mm] |
| --- | --- | --- | --- | --- | --- | --- | --- | --- | --- | --- | --- | --- | --- | --- | --- | --- | --- | --- |
| Cc1ccc2oc(=O)c3c(c2c1)OC(N)=C(C#N)C3c1ccco1 (racemic) [Compound 5b, (±)-2-amino-4-(furan-2-yl)-9-methyl-5-oxo-4H,5H-pyrano[3,2-c]chromene-3-carbonitrile] | 251 to 253 | — ((—): inactive (IC50 > 200 μg/mL)) | more potent | 74.68±3.01 | 500 to 1000 (≈ 1560 to 3120 µM) | significant protection against inflammation |  |  |  |  |  |  |  |  |  |  |  |  |
| Cc1ccc2oc(=O)c3c(c2c1)OC(N=Cc1ccccc1)=C(C#N)C3c1ccc([N+](=O)[O-])cc1 (racemic) [Compound 8a, (±)-2-(benzylideneamino)-9-methyl-4-(4-nitrophenyl)-5-oxo-4H,5H-pyrano[3,2-c]chromene-3-carbonitrile] | 208 to 209 | — ((—): inactive (IC50 > 200 μg/mL)) |  |  |  |  | 250 to 500 (≈ 539 to 1080 µM) | 500 (≈ 1080 µM) | 500 (≈ 1080 µM) | 500 (≈ 1080 µM) | 500 (≈ 1080 µM) |  |  |  |  |  |  |  |
| COc1cc(C=NC2=C(C#N)C(c3ccc([N+](=O)[O-])cc3)c3c(c4cc(C)ccc4oc3=O)O2)cc(OC)c1OC (racemic) [Compound 8c, (±)-9-methyl-4-(4-nitrophenyl)-5-oxo-2-((3,4,5-trimethoxybenzylidene)amino)-4H,5H-pyrano[3,2-c]chromene-3-carbonitrile] | 221 to 223 | — ((—): inactive (IC50 > 200 μg/mL)) | more potent | 68.5±6.23 |  |  |  | 500 (≈ 903 µM) | 500 (≈ 903 µM) | 500 (≈ 903 µM) | 500 (≈ 903 µM) | 500 (≈ 903 µM) | 500 (≈ 903 µM) | 500 (≈ 903 µM) |  |  |  |  |
| COc1cc(C=NC2=C(C#N)C(c3ccco3)c3c(c4cc(C)ccc4oc3=O)O2)cc(OC)c1OC (racemic) [Compound 8d, (±)-4-(furan-2-yl)-9-methyl-5-oxo-2-((3,4,5-trimethoxybenzylidene)amino)-4H,5H-pyrano[3,2-c]chromene-3-carbonitrile] | 248 to 250 | 82.92 ± 3.30 µg/mL (≈ 166 µM) | as potent | 43.4 ± 1.52 |  |  |  |  |  | 1000 (≈ 2010 µM) | 1000 (≈ 2010 µM) |  |  | 1000 (≈ 2010 µM) | < 15 | < 15 | < 15 | < 15 |
| Cc1ccc2oc(=O)c3c(c2c1)OC(N=Cc1ccc(Cl)cc1Cl)=C(C#N)C3c1ccco1 (racemic) [Compound 8f, (±)-2-((2,4-dichlorobenzylidene)amino)-4-(furan-2-yl)-9-methyl-5-oxo-4H,5H-pyrano[3,2-c]chromene-3-carbonitrile] | > 300 | — ((—): inactive (IC50 > 200 μg/mL)) |  | 26.83 ± 5.33 | 500 to 1000 (≈ 1050 to 2100 µM) |  |  | 1000 (≈ 2100 µM) | 1000 (≈ 2100 µM) | 500 (≈ 1050 µM) | 500 (≈ 1050 µM) | 1000 (≈ 2100 µM) | 500 (≈ 1050 µM) | 500 (≈ 1050 µM) | 20 |  |  | 20 |
